How the values were obtained:
Assay type in all cases: in vivo
[1] = system: Soy transgenic plants expressing CYP15; assay: Field trial icafolin injury rating, CYP15 soybean; conditions: for Percent Plant Injury (21 DAT): averaged across repetitions, field locations and events
Method: Soy transgenic plants expressing CYP14 or CYP15 were assayed in small scale field trails across nine sites in the United States for tolerance to icafolin spray applications. The plants were grown in field plots and sprayed during the early vegetative stages when plants were roughly at the V3 stage. The icafolin formulation was sprayed at either a 5 g ai/ha or 25 g ai/ha application rate with 2 treatment replications per location. The plants were rated for herbicide injury at 7, 14, 21, and 28 days after treatment (DAT). A total of 12 events for CYP14 and 11 events for CYP15 were tested. An event transformed with a non-herbicide tolerance construct served as a negative control to provide a comparison for injury.

[2] = system: transgenic soybean plants expressing CYP12_var; assay: Icafolin herbicide injury rating, greenhouse spray, CYP12_var soybean; conditions: for Percent Injury 15 DAT / Percent injury 21 DAT: Experiment 1
Text: (§1) The codon-optimized polynucleotide sequences were placed into plant transformation cassettes with each CYP coding sequence operably-linked to a constitutive expression element comprising the promoter, leader, and intron sequence of Arabidopsis thaliana Ubiquitin 3 (SEQ ID NO:14) and a Medicago truncatula photosystem II terminator (SEQ ID NO:15). Four plant transformation vectors were created, each comprising one of the CYP gene expression cassettes and an aadA selectable marker expression cassette, conferring resistance to the antibiotics spectinomycin and streptomycin. Soybean cultivar AG3555 seed-derived embryo explants were transformed with the vectors by Agrobacterium-mediated transformation using known methods in the art, and transformed plantlets were selected based on growth in the presence of spectinomycin. Plantlets comprising single copy events were grown in the greenhouse to produce R1 seeds. R1 plants were subsequently selected for homozygous CYP-positive plants, either by molecular analysis of young leaf tissue or by seed chipping prior to planting. These selected plants were then screened for tolerance to icafolin herbicide.
(§2) Herbicide tolerance screens were performed by selecting R1 plants at roughly the V2-V3 developmental stage and applying icafolin herbicide with a track sprayer under standard greenhouse conditions. Two independent transgenic events per transgene were screened. The herbicide was formulated with 1% v/v methylated seed oil (MSO) and 2.5% v/v ammonium sulfate (AMS) and sprayed with a XR nozzle at 15 gallons per […] (GPA) to mimic field conditions. The icafolin used in this Example and in the experiments described in Examples 2-4 was a mixture of the methyl ester forms of the 2R, 4R and 2S, 4S isomers. The icafolin formulation was sprayed at two rates: 5 g active ingredient (ai)/hectare (ha) and 25 g ai/ha. The herbicide treated soybean plants were returned to the greenhouse following spray application and allowed to grow under standard conditions. Plants were rated for herbicide injury at approximately 14 and 21 days after treatment (DAT). Untreated transgenic plants and control (wild-type) plants were used for phenotypic comparison. The herbicide injury rating accounts for plant malformation, stunting, chlorosis, necrosis, and plant death relative to the untreated control plants. An injury rating of approximately 90% or above indicates nearly complete plant death. An injury rating of less than 30% indicates partial tolerance, and an injury rating of less than 20% indicates good tolerance. Injury ratings were collected and analyzed, and photographs of representative plants were taken.

[3] = system: transgenic soybean plants expressing CYP14; assay: Icafolin herbicide injury rating, greenhouse spray, CYP14 soybean
Text: as §1, §2

[4] = system: transgenic soybean plants expressing CYP15; assay: Icafolin herbicide injury rating, greenhouse spray, CYP15 soybean
Text: as §1, §2

[5] = system: transgenic soybean plants expressing CYP13; assay: Icafolin herbicide injury rating, greenhouse spray, CYP13 soybean; conditions: for Percent Injury 15 DAT / Percent injury 21 DAT: Experiment 1
Text: as §1, §2

[6] = CYP12_var Event 909, 5 g ai/ha icafolin
[7] = CYP12_var Event 909, 25 g ai/ha icafolin
[8] = CYP12_var Event 932, 5 g ai/ha icafolin
[9] = CYP12_var Event 932, 25 g ai/ha icafolin
[10] = CYP14 Event 267, 5 g ai/ha icafolin, Experiment 2
[11] = CYP14 Event 267, 5 g ai/ha icafolin, Experiment 1
[12] = CYP14 Event 267, 25 g ai/ha icafolin, Experiment 2
[13] = CYP14 Event 267, 25 g ai/ha icafolin, Experiment 1
[14] = CYP14 Event 280, 5 g ai/ha icafolin, Experiment 2
[15] = CYP14 Event 280, 25 g ai/ha icafolin, Experiment 2
[16] = CYP14 Event 309, 5 g ai/ha icafolin, Experiment 2
[17] = CYP14 Event 309, 5 g ai/ha icafolin, Experiment 1
[18] = CYP14 Event 309, 25 g ai/ha icafolin, Experiment 2
[19] = CYP14 Event 309, 25 g ai/ha icafolin, Experiment 1
[20] = CYP14 Event 324, 5 g ai/ha icafolin, Experiment 2
[21] = CYP14 Event 324, 25 g ai/ha icafolin, Experiment 2
[22] = CYP15 Event 618, 5 g ai/ha icafolin, Experiment 2
[23] = CYP15 Event 618, 25 g ai/ha icafolin, Experiment 2
[24] = CYP15 Event 670, 5 g ai/ha icafolin, Experiment 2
[25] = CYP15 Event 670, 25 g ai/ha icafolin, Experiment 2
[26] = CYP15 Event 784, 5 g ai/ha icafolin, Experiment 2
[27] = CYP15 Event 784, 5 g ai/ha icafolin, Experiment 1
[28] = CYP15 Event 784, 25 g ai/ha icafolin, Experiment 2
[29] = CYP15 Event 784, 25 g ai/ha icafolin, Experiment 1
[30] = CYP15 Event 794, 5 g ai/ha icafolin, Experiment 2
[31] = CYP15 Event 794, 5 g ai/ha icafolin, Experiment 1
[32] = CYP15 Event 794, 25 g ai/ha icafolin, Experiment 2
[33] = CYP15 Event 794, 25 g ai/ha icafolin, Experiment 1
[34] = CYP13 Event 943, 5 g ai/ha icafolin
[35] = CYP13 Event 943, 25 g ai/ha icafolin
[36] = CYP13 Event 982, 5 g ai/ha icafolin
[37] = CYP13 Event 982, 25 g ai/ha icafolin

C=C[C@]1(C(=O)N[C@H]2CO[C@@H](C(=O)OC)C2)CC(c2cc(F)cc(F)c2)=NO1 (relative stereo) [icafolin, methyl(2R*,4R*)-4-[[(5S)-3-(3,5-difluorophenyl)-5-vinyl-4H-isoxazole-5-carbonyl]amino]tetrahydrofuran-2-carboxylate]
Percent Plant Injury (21 DAT) ([1]; 5 g ai/ha icafolin): 8.7% | injury ratings ([1]; 5 g ai/ha, 21 DAT): below 15% | Tolerance to icafolin ([1]; 25 g ai/ha): Incomplete tolerance | Percent Plant Injury (21 DAT) ([1]; 25 g ai/ha icafolin): 31.9% | Percent Injury 15 DAT [2, 6]: 39% | Percent injury 21 DAT [2, 6]: 50% | Percent Injury 15 DAT [2, 7]: 57% | Percent injury 21 DAT [2, 7]: 77% | Percent Injury 15 DAT [2, 8]: 42% | Percent injury 21 DAT [2, 8]: 47% | Percent Injury 15 DAT [2, 9]: 69% | Percent injury 21 DAT [2, 9]: 80% | Tolerance to icafolin ([2]; in vivo): did not show any noticeable tolerance | Percent Injury 14 DAT [3, 10]: 32% | Percent Injury 15 DAT [3, 11]: 14% | Percent injury 21 DAT [3, 11]: 12% | Percent injury 21 DAT [3, 10]: 20% | Percent Injury 14 DAT [3, 12]: 79% | Percent Injury 15 DAT [3, 13]: 39% | Percent injury 21 DAT [3, 13]: 47% | Percent injury 21 DAT [3, 12]: 57% | Percent Injury 14 DAT [3, 14]: 19% | Percent injury 21 DAT [3, 14]: 12% | Percent Injury 14 DAT [3, 15]: 64% | Percent injury 21 DAT [3, 15]: 35% | Percent Injury 14 DAT [3, 16]: 37% | Percent Injury 15 DAT [3, 17]: 33% | Percent injury 21 DAT [3, 17]: 36% | Percent injury 21 DAT [3, 16]: 22% | Percent Injury 14 DAT [3, 18]: 90% | Percent Injury 15 DAT [3, 19]: 71% | Percent injury 21 DAT [3, 19]: 81% | Percent injury 21 DAT [3, 18]: 89% | Percent Injury 14 DAT [3, 20]: 48% | Percent injury 21 DAT [3, 20]: 30% | Percent Injury 14 DAT [3, 21]: 75% | Percent injury 21 DAT [3, 21]: 66% | Tolerance to icafolin ([3]; in vivo): unexpected tolerance | injury ([3]; in vivo): less than 30% | Percent Injury 14 DAT [4, 22]: 23% | Percent injury 21 DAT [4, 22]: 12% | Percent Injury 14 DAT [4, 23]: 60% | Percent injury 21 DAT [4, 23]: 32% | Percent Injury 14 DAT [4, 24]: 10% | Percent injury 21 DAT [4, 24]: 15% | Percent Injury 14 DAT [4, 25]: 52% | Percent injury 21 DAT [4, 25]: 34% | Percent Injury 14 DAT [4, 26]: 8% | Percent Injury 15 DAT [4, 27]: 8% | Percent injury 21 DAT [4, 27]: 3% | Percent injury 21 DAT [4, 26]: 11% | Percent Injury 14 DAT [4, 28]: 78% | Percent Injury 15 DAT [4, 29]: 28% | Percent injury 21 DAT [4, 29]: 32% | Percent injury 21 DAT [4, 28]: 44% | Percent Injury 14 DAT [4, 30]: 12% | Percent Injury 15 DAT [4, 31]: 8% | Percent injury 21 DAT [4, 31]: 6% | Percent injury 21 DAT [4, 30]: 9% | Percent Injury 14 DAT [4, 32]: 78% | Percent Injury 15 DAT [4, 33]: 36% | Percent injury 21 DAT [4, 33]: 41% | Percent injury 21 DAT [4, 32]: 49% | Tolerance to icafolin ([4]; in vivo): unexpected tolerance | injury ([4]; in vivo): less than 30% | Percent Injury 15 DAT [5, 34]: 42% | Percent injury 21 DAT [5, 34]: 59% | Percent Injury 15 DAT [5, 35]: 74% | Percent injury 21 DAT [5, 35]: 80% | Percent Injury 15 DAT [5, 36]: 41% | Percent injury 21 DAT [5, 36]: 52% | Percent Injury 15 DAT [5, 37]: 69% | Percent injury 21 DAT [5, 37]: 80% | Tolerance to icafolin ([5]; in vivo): did not show any noticeable tolerance

— US20240415123A1, “METHODS AND COMPOSITIONS FOR ICAFOLIN HERBICIDE TOLERANCE” (Monsanto Technology LLC, priority 2023, published 2024)
